Source: patent US11453660B2, “Androgen receptor and glucocorticoid receptor modulators” (ONCOSTELLAE, S.L., priority 2017, dated 2022)

What was measured:
[1] = target: T1, Human Glucocorticoid Receptor (Homo sapiens, UniProt P04150); assay: Competition Binding in IM-9 Human Glucocorticoid Receptor (GR IM-9); details: cytosol from IM-9 cell line, 1.5 nM [3H]-Dexamethasone, 4° C. for 6 hours
T1 construct: endogenous in cells; host or cells: cytosol from IM-9 cell line
T1 sequence (P04150 1-777): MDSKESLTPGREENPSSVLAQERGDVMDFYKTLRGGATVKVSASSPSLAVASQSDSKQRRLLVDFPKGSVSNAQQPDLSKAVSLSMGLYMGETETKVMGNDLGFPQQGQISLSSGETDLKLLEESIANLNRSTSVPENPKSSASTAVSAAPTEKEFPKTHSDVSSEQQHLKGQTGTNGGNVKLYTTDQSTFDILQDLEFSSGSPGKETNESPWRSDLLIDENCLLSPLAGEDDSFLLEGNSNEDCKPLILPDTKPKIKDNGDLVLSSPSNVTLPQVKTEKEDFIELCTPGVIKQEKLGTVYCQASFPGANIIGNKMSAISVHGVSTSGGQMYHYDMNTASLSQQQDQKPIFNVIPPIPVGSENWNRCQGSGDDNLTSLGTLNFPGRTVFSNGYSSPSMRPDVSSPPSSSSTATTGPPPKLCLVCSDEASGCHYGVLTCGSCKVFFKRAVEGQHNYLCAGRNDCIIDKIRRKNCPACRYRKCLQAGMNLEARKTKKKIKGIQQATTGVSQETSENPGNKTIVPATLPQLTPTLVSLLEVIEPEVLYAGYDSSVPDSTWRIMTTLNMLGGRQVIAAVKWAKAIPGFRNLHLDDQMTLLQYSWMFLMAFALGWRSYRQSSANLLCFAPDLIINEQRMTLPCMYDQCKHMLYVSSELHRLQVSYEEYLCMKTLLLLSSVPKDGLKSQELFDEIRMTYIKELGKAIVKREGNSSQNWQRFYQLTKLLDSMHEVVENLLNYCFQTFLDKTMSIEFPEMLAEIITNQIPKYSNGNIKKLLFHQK
Outline: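 Radioligand competition using 100 μg IM-9 cell cytosol and 1.5 nM [3H]-dexamethasone, incubated 6 h at 4° C in TES/molybdate buffer, pH 7.4. Filtration on PEI-treated GF/B filters, scintillation counting; nonspecific binding defined with 10 μM triamcinolone.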

human androgen receptor = target: T2, human androgen receptor (Homo sapiens, UniProt P10275, T878A); assay: Human Androgen Receptor Binding (radioligand binding, LnCap prostate cancer cell line); details: LnCap cells, displacement of [^3H]-methyltrienolone, 2 hours at 37° C.; read-out: AR LNCaP
T2 construct: endogenously expressed human androgen receptor using the LnCap prostate cancer cell line; endogenous in cells; host or cells: LNCaP prostate cancer cell line (whole cells)
T2 sequence (P10275 1-920 T878A): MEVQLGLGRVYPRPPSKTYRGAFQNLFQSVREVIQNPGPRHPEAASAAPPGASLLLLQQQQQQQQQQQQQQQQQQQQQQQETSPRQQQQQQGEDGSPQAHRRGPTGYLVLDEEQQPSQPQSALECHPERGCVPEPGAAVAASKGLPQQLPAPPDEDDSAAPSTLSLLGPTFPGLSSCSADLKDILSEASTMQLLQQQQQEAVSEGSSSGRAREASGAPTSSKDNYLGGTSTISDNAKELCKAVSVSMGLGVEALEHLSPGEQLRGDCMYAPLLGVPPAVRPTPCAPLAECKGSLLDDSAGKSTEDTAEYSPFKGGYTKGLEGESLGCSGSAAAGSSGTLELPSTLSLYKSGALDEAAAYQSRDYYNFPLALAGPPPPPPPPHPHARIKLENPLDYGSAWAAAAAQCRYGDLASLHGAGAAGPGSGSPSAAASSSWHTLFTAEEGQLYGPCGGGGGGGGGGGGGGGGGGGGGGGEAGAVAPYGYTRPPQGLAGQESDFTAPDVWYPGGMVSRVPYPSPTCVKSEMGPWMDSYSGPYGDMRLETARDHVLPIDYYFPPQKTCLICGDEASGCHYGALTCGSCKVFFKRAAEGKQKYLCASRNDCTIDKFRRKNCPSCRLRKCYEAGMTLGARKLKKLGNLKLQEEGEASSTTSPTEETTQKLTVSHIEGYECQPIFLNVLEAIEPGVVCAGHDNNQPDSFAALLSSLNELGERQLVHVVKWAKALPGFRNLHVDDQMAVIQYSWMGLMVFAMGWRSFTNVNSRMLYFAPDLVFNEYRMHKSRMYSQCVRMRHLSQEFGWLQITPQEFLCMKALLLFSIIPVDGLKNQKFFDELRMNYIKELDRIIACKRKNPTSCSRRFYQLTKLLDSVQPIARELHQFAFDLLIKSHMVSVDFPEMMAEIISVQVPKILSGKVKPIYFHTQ
Outline: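 Whole-cell displacement of [3H]-methyltrienolone from endogenous AR (T878A) in LnCap cells, in RPMI with 0.1% BSA and triamcinolone acetonide. Compounds 10 μM to 0.1 nM in 1:10 steps, 2 h at 37 °C; cells washed, SDS-lysed, bound radioactivity by scintillation counting for IC50.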

Row | IC50 [1] | IC50 (human androgen receptor) | SMILES
1 | < 0.1 µM | 0.1 to 1 µM | CC(=O)C1=C(C)NC(C)=C(C(=O)OCc2cccc(Br)c2)C1c1csc2ncccc12 (stereo not drawn) [Example C66, 3-bromobenzyl 5-acetyl-2,6-dimethyl-4-(thieno[2,3-b]pyridin-3-yl)-1,4-dihydropyridine-3-carboxylate]
2 | < 0.1 µM | < 0.1 µM | CC(=O)C1=C(C)NC(C)=C(C(=O)OCc2ccccc2Br)C1c1csc2ncccc12 (stereo not drawn) [Example C67, 2-bromobenzyl 5-acetyl-2,6-dimethyl-4-(thieno[2,3-b]pyridin-3-yl)-1,4-dihydropyridine-3-carboxylate]
3 | < 0.1 µM | ≥ 1 µM | CC(=O)C1=C(C)NC(C)=C(C(=O)OC(C)(C)c2ccccc2)C1c1csc2ncccc12 (stereo not drawn) [Example C71, 2-phenylpropan-2-yl 5-acetyl-2,6-dimethyl-4-(thieno[2,3-b]pyridin-3-yl)-1,4-dihydropyridine-3-carboxylate]
4 | < 0.1 µM | ≥ 1 µM | CC(=O)C1=C(C)NC(C)=C(C(=O)OCc2cccc(C#N)c2)C1c1csc2ncccc12 (stereo not drawn) [Example C72, 3-Cyanobenzyl 5-acetyl-2,6-dimethyl-4-(thieno[2,3-b]pyridin-3-yl)-1,4-dihydropyridine-3-carboxylate]
5 | < 0.1 µM | ≥ 1 µM | CC(=O)C1=C(C)NC(C)=C(C(=O)OCc2ccc(C#N)cc2)C1c1csc2ncccc12 (stereo not drawn) [Example C73, 4-cyanobenzyl 5-acetyl-2,6-dimethyl-4-(thieno[2,3-b]pyridin-3-yl)-1,4-dihydropyridine-3-carboxylate]
6 | < 0.1 µM | 0.1 to 1 µM | COC(=O)C1=C(C=O)NC(C2CC2)=C(C(=O)OC)C1c1csc2c(C#N)cccc12 (stereo not drawn) [Example C117, Dimethyl 4-(7-cyanobenzo[b]thiophen-3-yl)-2-cyclopropyl-6-formyl-1,4-dihydropyridine-3,5-dicarboxylate]
7 | < 0.1 µM | < 0.1 µM | COC(=O)C1=C(CO)NC(C2CC2)=C(C(=O)OC)C1c1csc2c(C#N)cccc12 (stereo not drawn) [Example C118, Dimethyl 4-(7-cyanobenzo[b]thiophen-3-yl)-2-cyclopropyl-6-(hydroxymethyl)-1,4-dihydropyridine-3,5-dicarboxylate]
8 | < 0.1 µM | ≥ 1 µM | COC(=O)C1=C(C)NC(C=O)=C(C(=O)OC)C1c1csc2c(C#N)cccc12 (stereo not drawn) [Example C119, Dimethyl 4-(7-cyanobenzo[b]thiophen-3-yl)-2-formyl-6-methyl-1,4-dihydropyridine-3,5-dicarboxylate]
9 | < 0.1 µM | 0.1 to 1 µM | CC1=C(C#N)C(c2csc3c(C#N)cccc23)C(C(=O)OCC2CC2)=C(N)N1 (stereo not drawn) [Example D24, cyclopropylmethyl 2-amino-5-cyano-4-(7-cyanobenzo[b]thiophen-3-yl)-6-methyl-1,4-dihydropyridine-3-carboxylate]
10 | < 0.1 µM | 0.1 to 1 µM | COC(=O)C1=C(C)NC(N)=C(C(=O)OC2CCCC2)C1c1csc2c(C#N)cccc12 (stereo not drawn) [Example D27, 3-Cyclopentyl 5-methyl 2-amino-4-(7-cyanobenzo[b]thiophen-3-yl)-6-methyl-1,4-dihydropyridine-3,5-dicarboxylate]
11 | < 0.1 µM | 0.1 to 1 µM | CC(=O)C1=C(C)NC(N)=C(C(=O)OCC2CCCCC2)C1c1csc2c(C#N)cccc12 (stereo not drawn) [Example D30, Cyclohexylmethyl 5-acetyl-2-amino-4-(7-cyanobenzo[b]thiophen-3-yl)-6-methyl-1,4-dihydropyridine-3-carboxylate]
12 | < 0.1 µM | 0.1 to 1 µM | CC1=C(C(=O)C2CC2)C(c2csc3c(C#N)cccc23)C(C(=O)OCC2CC2)=C(N)N1 (stereo not drawn) [Example D31, Cyclopropylmethyl 2-amino-4-(7-cyanobenzo[b]thiophen-3-yl)-5-(cyclopropanecarbonyl)-6-methyl-1,4-dihydropyridine-3-carboxylate]
13 | < 0.1 µM | 0.1 to 1 µM | CC(=O)C1=C(C)NC(N)=C(C(=O)OCc2cccc(F)c2)C1c1csc2c(C#N)cccc12 (stereo not drawn) [Example D32, 3-Fluorobenzyl 5-acetyl-2-amino-4-(7-cyanobenzo[b]thiophen-3-yl)-6-methyl-1,4-dihydropyridine-3-carboxylate]
14 | < 0.1 µM | 0.1 to 1 µM | CC1=C(C(=O)OC2CC2)C(c2csc3c(C#N)cccc23)C(C(=O)OCC2CC2)=C(N)N1 (stereo not drawn) [Example D37, 5-Cyclopropyl 3-(cyclopropylmethyl) 2-amino-4-(7-cyanobenzo[b]thiophen-3-yl)-6-methyl-1,4-dihydropyridine-3,5-dicarboxylate]
15 | < 0.1 µM | 0.1 to 1 µM | COC(=O)C1=C(C)NC(N)=C(C(=O)OCC2CC2)C1c1csc2c(C#N)cc(F)cc12 (stereo not drawn) [Example D39, 3-(Cyclopropylmethyl) 5-methyl 2-amino-4-(7-cyano-5-fluorobenzo[b]thiophen-3-yl)-6-methyl-1,4-dihydropyridine-3,5-dicarboxylate]
16 | < 0.1 µM | 0.1 to 1 µM | COC(=O)C1=C(C)NC(N)=C(C(=O)OC(C)C)C1c1csc2c(C#N)cccc12 (stereo not drawn) [Example D41, 3-Isopropyl 5-methyl 2-amino-4-(7-cyanobenzo[b]thiophen-3-yl)-6-methyl-1,4-dihydropyridine-3,5-dicarboxylate]
17 | < 0.1 µM | 0.1 to 1 µM | COC(=O)C1=C(C)NC(N)=C(C(=O)OCC(C)(C)C)C1c1csc2c(C#N)cccc12 (stereo not drawn) [Example D43, 5-Methyl 3-neopentyl 2-amino-4-(7-cyanobenzo[b]thiophen-3-yl)-6-methyl-1,4-dihydropyridine-3,5-dicarboxylate]
18 | < 0.1 µM | ≥ 1 µM | CC1=C(C(=O)OCC2CC2)C(c2csc3c(C#N)cccc23)C(C(=O)OCC2CC2)=C(N)N1 (stereo not drawn) [Example D46, Bis(cyclopropylmethyl) 2-amino-4-(7-cyanobenzo[b]thiophen-3-yl)-6-methyl-1,4-dihydropyridine-3,5-dicarboxylate]
19 | < 0.1 µM | 0.1 to 1 µM | C#CCOC(=O)C1=C(C)NC(N)=C(C(=O)OCC2CC2)C1c1csc2c(C#N)cccc12 (stereo not drawn) [Example D47, 3-(Cyclopropylmethyl) 5-(prop-2-yn-1-yl) 2-amino-4-(7-cyanobenzo[b]thiophen-3-yl)-6-methyl-1,4-dihydropyridine-3,5-dicarboxylate]
20 | 0.1 to 1 µM | < 0.1 µM | COC(=O)C1=C(C2CC2)NC(C)=C(C(C)=O)C1c1csc2ncccc12 (stereo not drawn) [Example J23, Methyl 5-acetyl-2-cyclopropyl-6-methyl-4-(thieno[2,3-b]pyridin-3-yl)-1,4-dihydropyridine-3-carboxylate]
21 | < 0.1 µM | < 0.1 µM | COC(=O)C1=C(C2CC2)NC(C)=C(C(C)=O)C1c1csc2c(Br)cccc12 (stereo not drawn) [Example J26, Methyl 5-acetyl-4-(7-bromobenzo[b]thiophen-3-yl)-2-cyclopropyl-6-methyl-1,4-dihydropyridine-3-carboxylate]
